In patent publication US11584747B2, “Substituted pyridopyrimidinonyl compounds useful as T cell activators” (BRISTOL-MYERS SQUIBB COMPANY, priority 2019, dated 2023):
Read-outs that look alike come from different tables or passages of the source.

What was measured:
human DGKζ = human DGKζ (Homo sapiens (Human), UniProt Q13574); assay: DGKζ LIPGLO assay (extruded liposome substrate, ADP-Glo luminescence); type: biochemical
human DGKα = human DGKα (Homo sapiens (Human), UniProt P23743); assay: DGKα ADPGLO assay (detergent/lipid micelle substrate); type: biochemical
human DGKα, sequence (P23743 whole entry, looked up, the tested form may be a part): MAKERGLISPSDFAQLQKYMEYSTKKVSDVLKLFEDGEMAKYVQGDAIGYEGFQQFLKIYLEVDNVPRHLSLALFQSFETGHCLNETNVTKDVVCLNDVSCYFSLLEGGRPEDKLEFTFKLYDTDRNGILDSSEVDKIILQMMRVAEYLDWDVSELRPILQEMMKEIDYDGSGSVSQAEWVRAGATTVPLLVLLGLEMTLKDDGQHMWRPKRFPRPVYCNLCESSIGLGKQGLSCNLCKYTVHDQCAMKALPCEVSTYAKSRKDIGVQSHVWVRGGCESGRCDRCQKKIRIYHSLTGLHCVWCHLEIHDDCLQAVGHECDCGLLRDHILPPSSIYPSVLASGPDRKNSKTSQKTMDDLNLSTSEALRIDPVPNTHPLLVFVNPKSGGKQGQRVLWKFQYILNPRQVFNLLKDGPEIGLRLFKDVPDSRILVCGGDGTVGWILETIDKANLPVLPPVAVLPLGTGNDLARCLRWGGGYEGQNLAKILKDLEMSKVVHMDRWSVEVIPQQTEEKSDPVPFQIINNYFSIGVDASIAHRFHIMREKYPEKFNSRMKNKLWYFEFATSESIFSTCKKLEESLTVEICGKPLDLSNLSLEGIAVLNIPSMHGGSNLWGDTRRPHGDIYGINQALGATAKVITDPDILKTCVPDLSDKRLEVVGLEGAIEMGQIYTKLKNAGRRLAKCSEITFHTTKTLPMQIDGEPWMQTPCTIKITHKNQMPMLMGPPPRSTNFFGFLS
Experimental: DGK Alpha ADPGLO (Truncated) IC50 (uM)
The detergent/lipid micelle was prepared by combining 15 g phosphatidylserine (Avanti 840035P) and 1 g diacylglycerol (8008110) and dissolving into 150 mL chloroform in a 2 L round bottom flask. Chloroform was removed under high vacuum by rotary evaporation. […] The lipid/detergent solution was split into 5 mL aliquots and stored at −80° C.

[1] = tested on: human venous whole blood (IFN-γ); assay: Human whole blood IFN-γ assay; type: cell-based
Experimental: Human venous whole blood (22.5 μL per well), obtained from healthy donors, was pre-treated with compounds for one hour at 37° C. in a humidified 95% air/5% CO2 incubator. The blood was stimulated with 2.5 μL anti-human CD3 and anti-CD28 mAb at a final concentration of 1 μg/mL each for 24 hours at 37° C. IFN-γ in the supernatants was measured using AlphLISA kit (Cat #AL217).

[2] = liposome assay, read-out: DGK zeta LIPGLO IC50
[3] = truncated DGK alpha, read-out: DGK alpha ADPGLO (Truncated) IC50
[4] = whole blood, normalized to 3 μM reference compound as 100% activation, read-out: IFN-γ Whole Blood Normalized EC50
[5] = Homo sapiens, whole blood, normalized to 3 μM reference compound as 100% activation, read-out: IFN-γ Whole Blood Normalized EC50
[6] = liposome (LIPGLO) assay, read-out: DGK zeta (liposome assay) IC50
[7] = ADPGLO assay, read-out: DGK alpha ADPGLO IC50
[8] = human whole blood, anti-CD3 plus anti-CD28 stimulation, 24 hours, read-out: IFN-γ Whole Blood EC50

human DGKζ, sequence (Q13574 other isoform, or with tags, fused parts or gaps): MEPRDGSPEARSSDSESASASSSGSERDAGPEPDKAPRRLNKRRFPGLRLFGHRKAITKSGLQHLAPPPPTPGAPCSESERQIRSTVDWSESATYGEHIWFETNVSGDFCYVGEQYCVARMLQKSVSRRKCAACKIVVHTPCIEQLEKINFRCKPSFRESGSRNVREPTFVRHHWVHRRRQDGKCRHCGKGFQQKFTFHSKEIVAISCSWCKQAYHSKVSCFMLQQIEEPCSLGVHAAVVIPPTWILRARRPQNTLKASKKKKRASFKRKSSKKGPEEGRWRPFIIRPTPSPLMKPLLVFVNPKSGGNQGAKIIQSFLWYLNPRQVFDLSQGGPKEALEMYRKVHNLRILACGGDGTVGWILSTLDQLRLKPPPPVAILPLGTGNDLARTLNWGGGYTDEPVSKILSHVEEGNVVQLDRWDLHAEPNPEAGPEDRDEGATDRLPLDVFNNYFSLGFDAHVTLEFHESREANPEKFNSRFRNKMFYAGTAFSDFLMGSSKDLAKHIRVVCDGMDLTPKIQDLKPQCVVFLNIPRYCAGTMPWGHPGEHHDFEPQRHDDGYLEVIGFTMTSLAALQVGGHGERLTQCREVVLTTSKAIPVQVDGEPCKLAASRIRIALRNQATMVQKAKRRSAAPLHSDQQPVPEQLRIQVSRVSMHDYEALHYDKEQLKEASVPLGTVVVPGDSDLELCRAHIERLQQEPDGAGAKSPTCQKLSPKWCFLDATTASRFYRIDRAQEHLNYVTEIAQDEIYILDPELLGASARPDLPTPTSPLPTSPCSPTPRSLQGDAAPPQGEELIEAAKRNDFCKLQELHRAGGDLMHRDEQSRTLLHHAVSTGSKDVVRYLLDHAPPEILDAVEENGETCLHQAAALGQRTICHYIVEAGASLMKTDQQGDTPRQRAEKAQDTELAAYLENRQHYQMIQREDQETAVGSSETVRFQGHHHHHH

| Structure (SMILES) | IC50 (human DGKζ; [2]) [nM] | IC50 (human DGKα; [3]) [nM] | EC50 [1, 4] [nM] | EC50 [1, 5] [nM] | IC50 (human DGKζ; [6]) [nM] | IC50 (human DGKα; [7]) [nM] | EC50 [1, 8] [nM] | EC50 ([1]; Homo sapiens, 24 h, human whole blood, anti-CD3 plus anti-CD28 stimulation, 24 hours, read-out: IFN-γ Whole Blood EC50) [nM] |
| --- | --- | --- | --- | --- | --- | --- | --- | --- |
| CC[C@H]1CN(C(c2ccc(F)cc2)c2csc(C(F)(F)F)n2)[C@H](CC)CN1c1nc(=O)n(C)c2ccc(C#N)nc12 (stereo partly drawn) [Example 211, 4-((2S,5R)-2,5-diethyl-4((4-fluorophenyl)(2-(trifluoromethyl)thiazol-4-yl)methyl)piperazin-1-yl)-1-methyl-2-oxo-1,2-dihydropyrido[3,2-d]pyrimidine-6-carbonitrile] | 100 | 46 | 18 |  |  |  |  |  |
| CC[C@@H]1CN(c2nc(=O)n(C)c3ccc(C#N)nc23)[C@@H](C)CN1C(c1ccc(F)cc1)c1csc(C(F)(F)F)n1 (stereo partly drawn) [Example 296, 4-((2S,5R)-5-ethyl-4-((4-fluorophenyl)(2-(trifluoromethyl)thiazol-4-yl)methyl)-2-methylpiperazin-1-yl)-1-methyl-2-oxo-1,2-dihydropyrido[3,2-d]pyrimidine-6-carbonitrile] | 140 | 460 |  | 36 |  |  |  |  |
| CCC(c1ccc(C#N)cc1)N1C[C@H](CC)N(c2nc(=O)n(C)c3ccc(C#N)nc23)C[C@H]1CC (stereo partly drawn) [Example 221, 4-((2S,5R)-4-(1-(4-cyanophenyl)propyl)-2,5-diethylpiperazin-1-yl)-1-methyl-2-oxo-1,2-dihydropyrido[3,2-d] pyrimidine-6-carbonitrile] | 250 | 2 | 480 |  |  |  |  |  |
| CC[C@H]1CN(C(C)c2ccc(C)nc2)[C@H](CC)CN1c1nc(=O)n(C)c2ccc(C#N)nc12 (stereo partly drawn) [Example 229, 4-((2S,5R)-2,5-diethyl-4-(1-(6-methylpyridin-3-yl)ethyl)piperazin-1-yl)-1-methyl-2-oxo-1,2-dihydropyrido[3,2-d]pyrimidine-6-carbonitrile] | 3560 | 680 | 1610 |  |  |  |  |  |
| CC[C@H]1CN(C(C)c2cnc(C(F)(F)F)nc2)[C@H](CC)CN1c1nc(=O)n(C)c2ccc(C#N)nc12 (stereo partly drawn) [Example 227, 4-((2S,5R)-2,5-diethyl-4-(1-(2-(trifluoromethyl)pyrimidin-5-yl)ethyl)piperazin-1-yl)-1-methyl-2-oxo-1,2-dihydropyrido[3,2-d]pyrimidine-6-carbonitrile] | 1790 | 2450 | 640 |  |  |  |  |  |
| CCC(c1ccc(Cl)cc1F)N1C[C@H](CC)N(c2nc(=O)n(C)c3ccc(C#N)nc23)C[C@H]1CC (stereo partly drawn) [Example 239, 4-((2S,5R)-4-(1-(4-chloro-2-fluorophenyl)propyl)-2,5-diethylpiperazin-1-yl)-1-methyl-2-oxo-1,2-dihydropyrido[3,2-d]pyrimidine-6-carbonitrile] | 2230 | 94 | 2850 |  |  |  |  |  |
| CC[C@H]1CN(C(C)c2ccc(CN3CCC(OC)CC3)cc2)[C@H](CC)CN1c1nc(=O)n(C)c2ccc(C#N)nc12 (single isomer, unassigned) [Example 273] | 7330 | 1000 | 420 |  |  |  |  |  |
| CC[C@@H]1CN(c2nc(=O)n(C)c3ccc(C#N)nc23)[C@@H](C)CN1C(C)c1ccc2oc(=O)n(C)c2c1 (stereo partly drawn) [Example 299, 4-((2S,5R)-5-ethyl-2-methyl-4-(1-(3-methyl-2-oxo-2,3-dihydrobenzo[d]oxazol-5-yl)ethyl)piperazin-1-yl)-1-methyl-2-oxo-1,2-dihydropyrido[3,2-d]pyrimidine-6-carbonitrile] | 4680 | 1280 | 3460 |  |  |  |  |  |
| CC[C@H]1CN(C(C)c2ccc(C3CC3)nc2)[C@H](CC)CN1c1nc(=O)n(C)c2ccc(C#N)nc12 (stereo partly drawn) [Example 193, 4-((2 S,5R)-4-(1-(6-cyclopropylpyridin-3-yl)ethyl)-2,5-diethylpiperazin-1-yl)-1-methyl-2-oxo-1,2-dihydropyrido[3,2-d]pyrimidine-6-carbonitrile] | 1770 | 650 | 1150 |  |  |  |  |  |
| CC[C@H]1CN(C(c2ccc(F)cc2)c2noc(C3CC3)n2)[C@H](CC)CN1c1nc(=O)n(C)c2ccc(C#N)nc12 (single isomer, unassigned) [Example 372] |  |  |  |  | 43 | 4 | 150 |  |
| [2H]C([2H])([2H])Oc1ccc(C(CC)N2C[C@H](CC)N(c3nc(=O)n(C)c4ccc(C#N)nc34)C[C@H]2CC)cc1 (single isomer, unassigned) [Example 208] | 78 | 25 | 17 |  |  |  |  |  |
| CCC(c1ccc(C(F)(F)F)cc1)N1C[C@H](CC)N(c2nc(=O)n(C)c3ccc(Cl)nc23)C[C@H]1CC (single isomer, unassigned) [Example 421] |  |  |  |  | 320 | 64 |  | 190 |
| CC[C@H]1CN(C(C)c2ccc(CN3CCOC(C)(C)C3)cc2)[C@H](CC)CN1c1nc(=O)n(C)c2ccc(C#N)nc12 (stereo partly drawn) [Example 275, 4-((2S,5R)-4-(1-(4-((2,2-dimethylmorpholino)methyl)phenyl)ethyl)-2,5-diethylpiperazin-1-yl)-1-methyl-2-oxo-1,2-dihydropyrido[3,2-d]pyrimidine-6-carbonitrile] | 150 | 530 | 35 |  |  |  |  |  |
| CCC(c1ccc(C(F)(F)F)nc1)N1C[C@H](CC)N(c2nc(=O)n(C)c3ccc(C#N)nc23)C[C@H]1CC (stereo partly drawn) [Example 225, 4-((2S,5R)-2,5-diethyl-4-(1-(6-(trifluoromethyl)pyridin-3-yl)propyl)piperazin-1-yl)-1-methyl-2-oxo-1,2-dihydropyrido[3,2-d]pyrimidine-6-carbonitrile] | 4130 | 460 | 610 |  |  |  |  |  |
| CC[C@H]1CN(C(C)c2nc(C3CC3)no2)[C@H](CC)CN1c1nc(=O)n(C)c2ccc(C#N)nc12 (stereo partly drawn) [Example 362, 4-((2S,5R)-4-(1-(3-cyclopropyl-1,2,4-oxadiazol-5-yl)ethyl)-2,5-diethylpiperazin-1-yl)-1-methyl-2-oxo-1,2-dihydropyrido[3,2-d]pyrimidine-6-carbonitrile] |  |  |  |  | 590 | 61 | 3090 |  |
| CCC(c1ccc(C(F)(F)F)nc1)N1C[C@H](CC)N(c2nc(=O)n(C)c3ccc(C#N)nc23)C[C@H]1CC (stereo partly drawn) [Example 224, 4-((2S,5R)-2,5-diethyl-4-(1-(6-(trifluoromethyl)pyridin-3-yl)propyl)piperazin-1-yl)-1-methyl-2-oxo-1,2-dihydropyrido[3,2-d]pyrimidine-6-carbonitrile] | 140 | 81 | 120 |  |  |  |  |  |
| CC[C@@H]1CN(c2nc(=O)n(C)c3ccc(C#N)nc23)[C@@H](CC)CN1Cc1ccc(C(F)(F)F)cc1F [Example 204, 4-((2S,5R)-2,5-diethyl-4-(2-fluoro-4-(trifluoromethyl)benzyl)piperazin-1-yl)-1-methyl-2-oxo-1,2-dihydropyrido[3,2-d]pyrimidine-6-carbonitrile] | 1410 | 120 |  | 410 |  |  |  |  |
| CC[C@H]1CN(C(C)c2ccc(C(=O)OC)cc2)[C@H](CC)CN1c1nc(=O)n(C)c2ccc(C#N)nc12 (stereo partly drawn) [Example 265, methyl 4-(1-((2R,5S)-4-(6-cyano-1-methyl-2-oxo-1,2-dihydropyrido[3,2-d]pyrimidin-4-yl)-2,5-diethylpiperazin-1-yl)ethyl)benzoate] | 370 | 790 | 1590 |  |  |  |  |  |
| CC(c1ccc(CN2C[C@@H]3C[C@H]2CO3)cc1)N1C[C@H](C)N(c2nc(=O)n(C)c3ccc(C#N)nc23)C[C@H]1C (stereo partly drawn) [Example 387, 4-((2S,5R)-4-(1-(4-(((1S,4S)-2-oxa-5-azabicyclo[2.2.1]heptan-5-yl)methyl)phenyl)ethyl)-2,5-dimethylpiperazin-1-yl)-1-methyl-2-oxo-1,2-dihydropyrido[3,2-d]pyrimidine-6-carbonitrile] |  |  |  |  | 6070 | 1930 | 770 |  |
| CC[C@@H]1CN(c2nc(=O)n(C)c3ccc(C#N)nc23)[C@@H](C)CN1C(c1ccc(F)cc1)c1csc(C(F)(F)F)n1 (stereo partly drawn) [Example 297, 4-((2S,5R)-5-ethyl-4-((4-fluorophenyl)(2-(trifluoromethyl)thiazol-4-yl)methyl)-2-methylpiperazin-1-yl)-1-methyl-2-oxo-1,2-dihydropyrido[3,2-d]pyrimidine-6-carbonitrile] | 110 | 110 | 53 |  |  |  |  |  |
| CCC(c1ccc(OC(F)F)cc1)N1C[C@H](CC)N(c2nc(=O)n(C)c3ccc(C#N)nc23)C[C@H]1CC (stereo partly drawn) [Example 223, 4-((2S,5R)-4-(1-(4-(difluoromethoxy)phenyl)propyl)-2,5-diethylpiperazin-1-yl)-1-methyl-2-oxo-1,2-dihydropyrido[3,2-d]pyrimidine-6-carbonitrile] | 2080 | 130 |  | 900 |  |  |  |  |
| CC[C@H]1CN(C(C)c2ccc(CN3CCC(OC)CC3)cc2)[C@H](CC)CN1c1nc(=O)n(C)c2ccc(C#N)nc12 (single isomer, unassigned) [Example 274] | 174000 | 16000 | 5330 |  |  |  |  |  |
